Results reported in patent US20140271926A1, “METHODS OF USE OF GLUTAMINE SYNTHETASE INHIBITORS” (CALIFORNIA INSTITUTE OF TECHNOLOGY, priority 2013, published 2014).
Residues, ends and D or L forms follow the SMILES beside them. *: point of attachment. Cbz = O=C(OCc1ccccc1)*

Key:
[1] = system: glutamine synthetase (GS); experiment: Western blot of endogenous GS level in MM.1S cells; type: cell-based, human; settings: for steady-state level of GS: MM.1S cells, 2 mM glutamine, FIG. 5
Description: The consequences of IMiD-enhanced ubiquitylation of GS on endogenous GS levels and stability in MM.1S cells were evaluated. […] The IMiD-triggered decline in GS protein was not due to a reduction in the mRNA level of GS (FIGS. 5 and 6). If IMiDs were added immediately after changing the growth medium, the suppression of GS was more profound, with a maximal effect seen at 0.1 μM pomalidomide (4-amino-thalidomide) (FIG. 7). […] To determine if IMiDs were affecting the stability of GS, cycloheximide chase experiments were performed. As known in the art, GS is an unstable protein (FIG. 9). […] The lenalidomide-induced downregulation of GS was blocked by the proteasome inhibitor MG132 (FIG. 11). Additionally, the lenalidomide-induced downregulation of GS was blunted upon depletion of CRBN by shRNA (FIG. 12).
Western blot analysis. […] After washing twice with ice-cold PBS, the cells were lysed in RIPA buffer (50 mM Tris-HCl, 150 mM NaCl, 1% Triton X-100, 1% Sodium deoxycholate, 0.1% SDS, [pH 7.5]) supplemented with complete protease inhibitor (Roche). Whole-cell protein extracts were prepared and quantified by the Bradford method (Bio-Rad, Hercules, Calif.). Equal amounts of protein (20-80 μg/lane) were electrophoretically separated on SDS-PAGE and transferred to a PVDF membrane. The membranes were blotted with indicated antibodies. Anti-rabbit or anti-mouse antibodies conjugated to horseradish peroxidase (Vector Labs) were used as secondary antibodies, and the signal was detected using a Super Signal West Pico Substrate kit (Fisher Scientific).

[2] = system: endogenous GS; experiment: TUBE2 pull-down of ubiquitin conjugates, HEK293T cells; type: cell-based, human; settings: 3 hours, FIG. 4; for GS ubiquitin conjugates: lenalidomide 30 μM or MG132 10 μM
Description: TUBE (Tandem Ubiquitin Binding Entities) Pull-down. […] The cells were lysed in immunoprecipitation buffer (10 mM Tris [pH 7.5], 150 mM NaCl, 1% Triton X-100) containing a protease inhibitor cocktail, MG132 and 10 mM N-ethylmaleimide (NEM, Sigma). Whole-cell protein extracts were incubated with 20 μl of TUBE2 agarose beads (Boston Biochem) for 2-4 hours with rotation at 4° C. Beads were washed 3-5 times with lysis buffer, and bound proteins were eluted in SDS sample buffer and subjected to Western blot analysis.

[3] = system: FlagGS; experiment: In vivo ubiquitylation assay of FlagGS in HEK293T cells; type: cell-based, human; settings: MG132 10 μM 3 hours, FIG. 13A
From the text: As mentioned above, GS is moderately unstable even in the absence of IMiDs. Specifically, seven lysine residues of GS are modified with ubiquitin in proteasome-inhibited cells, and modification of five of these sites is reduced upon inhibition of CRL activity with the NEDD8 conjugation inhibitor MLN4924. (Kim et al., 2011, Mol Cell., 44:325 and Emanuele et al., 2011, Cell, 147:459, the entire contents of both of which are herein incorporated by reference.) As such, the idea that the constitutive ubiquitylation and degradation of GS may be dependent on CRL4^CRBN was tested. In co-transfection assays, ^HAubiquitin was incorporated into ^FlagGS as determined by immunoprecipitation of ^FlagGS followed by immunoblotting with anti-HA (FIG. 13A). Additionally, ubiquitin-modified ^FlagGS accumulated in cells in which the proteasome was inhibited with the proteasome inhibitor MG132, but was almost entirely absent upon depletion of endogenous CRBN (depletion of CRBN was confirmed by immunoblot; FIG. 13B). […]
In vivo ubiquitylation assay. […] IP washing steps were performed using IP lysis buffer supplemented with 0.5 M NaCl Immunoprecipitated proteins were resolved by SDS/PAGE and analyzed by immunoblotting.

[4] = system: GS; settings: five of seven ubiquitin-modified lysine sites; proteasome-inhibited cells; cited from earlier work
[5] = clinical; cited from earlier work
[6] = system: MM.1S cells; experiment: Immunoblot of apoptosis biomarkers (cleaved caspase-3, PARP) in MM.1S cells; type: cell-based, human; settings: low concentrations of pomalidomide; 0.5 mM glutamine 72 hours; FIG. 26
Description: Since the physiological concentration of glutamine in human plasma is 0.5 mM (not the 2 mM that is typically used in cell cultures), the impact of GS depletion on cells grown in 0.5 mM glutamine was evaluated. Cells transduced with GS shRNA-3 in 2 mM glutamine for 7 days and then the cells were shifted to 0.5 mM glutamine.
If IMiDs modulate the level of multiple proteins that are critical for proliferation of myeloma cells, then restoring any one protein would not be expected to allow proliferation in the presence of IMiDs. By contrast, it was reasoned that if degradation of GS contributes to the anti-myeloma effect of IMiDs, that reduction of GS levels by shRNA knockdown would enhance the effect of IMiDs at sub-saturating concentrations, resulting in enhanced efficacy. […]
Western blot analysis. […] Whole-cell protein extracts were prepared and quantified by the Bradford method (Bio-Rad, Hercules, Calif.). […] Anti-rabbit or anti-mouse antibodies conjugated to horseradish peroxidase (Vector Labs) were used as secondary antibodies, and the signal was detected using a Super Signal West Pico Substrate kit (Fisher Scientific).

Compound: Nc1ccc2c(c1)C(=O)N(C1CCC(=O)NC1=O)C2=O (stereo not shown) [5-amino-thalidomide]
- effect on GS protein levels ([1]; MM.1S, FIG. 7): no effect

Compound: CC(C)C[C@@H](C=O)NC(=O)[C@H](CC(C)C)NC(=O)[C@H](CC(C)C)NC(=O)OCc1ccccc1 [MG132] (Cbz-Leu-Leu-Leu-aldehyde)
- GS ubiquitin conjugates [2]: increase
- lenalidomide-induced downregulation of GS in presence of proteasome inhibitor ([1]; MM.1S, 0.5 μM MG132, 100 μM lenalidomide, FIG. 11): blocked
- ubiquitin-modified FlagGS [3]: accumulated

Compound: NS(=O)(=O)OC[C@@H]1C[C@@H](n2ccc3c(N[C@H]4CCc5ccccc54)ncnc32)C[C@@H]1O [MLN4924]
- ubiquitin modification of GS lysine residues [4]: reduced

Compound: Nc1cccc2c1CN(C1CCC(=O)NC1=O)C2=O (stereo not shown) [lenalidomide]
- total cellular pool of ubiquitin conjugates ([2]; 30 μM): essentially no effect
- GS ubiquitin conjugates [2]: increase
- steady-state level of GS ([1]; 24 hours): marked, dose-dependent reduction
- time to substantial reduction of GS ([1]; MM.1S, 100 μM lenalidomide, FIG. 8): ≤ 4 h
- lenalidomide-induced downregulation of GS upon depletion of CRBN by shRNA ([1]; MM.1S, 24 hours, FIG. 12): blunted
- Cmax [5]: ~1500 nM

Compound: Nc1cccc2c1C(=O)N(C1CCC(=O)NC1=O)C2=O (stereo not shown) [pomalidomide, 4-amino-thalidomide]
- steady-state level of GS ([1]; 24 hours): marked, dose-dependent reduction
- concentration giving maximal suppression of GS ([1]; MM.1S, IMiDs added immediately after changing the growth medium, FIG. 7): 0.1 µM
- Cmax [5]: ~275 nM
- PARP cleavage in GS-depleted cells [6]: further accentuated
- PARP cleavage in non-depleted cells [6]: no effect
